Experimental data as given in patent US7737185B2 (Repros Therapeutics Inc., priority 2001, dated 2010).

Tests used:
[1] = test system: total serum testosterone; assay: Serum testosterone in male baboons given Clomid, Enclomid or Zuclomid; assay type: in vivo; conditions: for Effect on total serum testosterone: 1.5 mg/kg for 12 days, male baboons
Text: (§1) The samples analyzed were sera taken on the day of first treatment before being given test article (day 0), after 12 days of treatment (day 12) and 7 days after the last treatment (end or wash-out).

[2] = test system: serum cholesterol; assay: Serum cholesterol in male baboons; assay type: in vivo; conditions: 1.5 mg/kg for 12 days
Text: as §1

[3] = test system: FSH, LH, testosterone; conditions: cited from earlier work
[4] = test system: serum LH, FSH, PRL; assay: Serum LH, FSH and prolactin in male baboons; assay type: in vivo; conditions: during the study
Text: as §1

[5] = test system: total testosterone; assay: Placebo controlled challenge study Androxal vs Androgel: total testosterone; assay type: in vivo, human; conditions: for Mean increase in testosterone from baseline: hypogonadal men, two weeks
Experimental: (§2) Androgel® (Solvay Pharmaceuticals, Inc.) consists of a cream that administers exogenous testosterone in a transdermal matrix.
(§3) The study enrolled 62 hypogonadal men with testosterone levels less than 300 ng/dl (normal 298-1034 ng/dl) that were randomized into 6 different arms, three doses of Androxal™ (12.5 mg, 25 mg, and 50 mg), placebo, and both high and low doses of Androgel®. Half of the men in each of the Androxal™ and placebo arms were randomized into cohorts that underwent in-clinic sessions on days 1 and 14 to determine pharmacokinetic parameters for Androxal™ as well as cyclical changes in testosterone. The placebo and Androxal™ doses were administered in a double blind fashion. The Androgel® cream was administered in an open label fashion. Half of the Androgel® patients underwent in-clinic sessions similar to the other patients in the study. Following the two week drug exposure patients were followed for an additional seven to ten days to determine the status of their testosterone levels.

[6] = test system: serum LH, FSH; assay: Placebo controlled challenge study Androxal vs Androgel: serum LH and FSH; assay type: in vivo, human
Experimental: as §2, §3

[7] = test system: triglycerides; assay: Placebo controlled challenge study Androxal vs Androgel: triglycerides; assay type: in vivo, human; conditions: after two weeks of therapy, non-dose dependent; placebo 5.9% reduction
Experimental: as §2, §3

[8] = Placebo controlled challenge study Androxal vs Androgel: side effects; assay type: in vivo, human; conditions: hypogonadal men, two week exposure
Experimental: as §2, §3

[9] = following a single dose; cited from earlier work

In the case of `CCN(CC)CCOc1ccc(C(=C(Cl)c2ccccc2)c2ccccc2)cc1` [Clomid, clomiphene], the “Variability of total testosterone levels (coefficients of variation)” value ([1]; day 6 and later, compared to animals receiving Enclomid) is listed as “more variable total testosterone levels”, the “Change in serum cholesterol levels” value [2] is listed as “slight increase” and the “FSH, LH after treatment” value ([3]; both young and old men) is listed as “increases in FSH, LH”. The “Free and total testosterone after treatment” value ([3]; men, young men showing significant increases) was “increases in free and total testosterone”.

In the case of `CCN(CC)CCOc1ccc(/C(=C(\Cl)c2ccccc2)c2ccccc2)cc1` [Enclomid, trans-clomiphene], the “Effect on total serum testosterone” value [1] was “significant increases in total serum testosterone”, the “Change in total serum testosterone after cessation of treatment” value ([1]; between day 12 and day 18 (washout)) was “significant drop” and the “Serum prolactin (PRL)” value [4] was “decrease in serum prolactin”. For the same compound, the “Decrease in serum cholesterol levels” value [2] was 8%, the “Coefficient of variation (CV) of mean total testosterone” value ([5]; 50 mg dose, after 15 days) was 29% and the Mean total testosterone ([5]; 50 mg dose, after 15 days) was 589 ± 172 ng/dL. The “Mean increase in testosterone from baseline” value (shortened to “Mean increase in testosterone”) ([5]; high dose (50 mg) oral) was 294 ng/dL, the “Mean increase in testosterone” value ([5]; low dose (12.5 mg) oral) was 169 ng/dL and the “Mean increase in testosterone” value ([5]; mid dose (25 mg) oral) was 247 ng/dL. For the same compound, the “Serum LH in the follow-up period” value ([6]; 7-10 days after cessation of daily treatment) was “remained high”, the “Serum FSH in the follow-up period” value ([6]; after cessation of treatment) was “remains high” and the “Serum levels of LH during treatment” value ([6]; hypogonadal male subjects (FIG. 5)) was “statistically significant increase”. For the same compound, the “Serum levels of FSH during treatment” value ([6]; hypogonadal male subjects (FIG. 6)) was “statistically significant increase”, the “Reduction in triglycerides (average decrease)” value [7] was 19.1% and the “Side effects different than placebo” value [8] was “no side effects noted”. For the same compound, the Platelet count (12-day treatment) was “lowering of the platelet count”, the Eosinophil counts (male baboons) was “raising the counts” and the “Lymphocytes, count and per cent” value (male baboons) was “increase”. For the same compound, the “Red blood cell population” value (male baboons) was “substantive effects” and the “Per cent of granulocytes in the blood” value (very strong after the 7-day washout period) was “strong effect”.

In the case of `CCN(CC)CCOc1ccc(/C(=C(/Cl)c2ccccc2)c2ccccc2)cc1` [Zuclomid, cis-clomiphene, reference compound], the “Effect on total serum testosterone” value [1] was “did not raise total serum testosterone to any extent”, the “Increase in serum cholesterol levels” value [2] was 22% and the Hematocrit (male baboons) was “demonstrated a statistical difference”. The “Red blood cell population” value (male baboons) was “substantive effects” and the Residual blood levels [9] was “in excess of one month”.
